# According to PMC6746686, “Physicochemical Profiling of Baicalin Along with the Development and Characterization of Cyclodextrin Inclusion Complexes” (AAPS PharmSciTech, 2019):
# Read-outs that look alike come from different tables or passages of the source.
# How the values were obtained:
# [1] = NMR-pH titrations (acid dissociation constants, species distribution); format: physicochemical; settings: for pKa: aqueous solution, 95% (v/v) H2O and 5% (v/v) D2O; for mole fraction of the monoanionic form ([H2B]−): calculated from pKa values
# Experimental: NMR-pH titrations were performed on a Varian VNMRS spectrometer (600 MHz for ^1H). Spectra were recorded at 25°C. Titrations were carried out in solutions containing 95% (v/v) H2O and 5% (v/v) D2O, with the addition of small amounts of 0.1 M HCl and NaOH. One molar NaOH and solid NaOH crystals were also used to achieve highly basic pH values. The ionic strength was kept at 0.15 M by the presence of NaCl. The concentration of baicalin and its methyl ester was 1.0 × 10^−3 M and ascorbic acid was used in large excess (5.0 × 10^−3 M) to prevent the oxidation of the studied catechol molecules in alkaline solutions. The sample volume was 600 μl. NMR spectra were referenced to the internal standard DSS (sodium 3-(trimethylsilyl)-1-propanesulfonate). The water signal was suppressed by presaturation. Spectra were processed with VNMRj 3.2a software. pH values were read on a Metrohm 2.780.0010 precision pH meter with a 6.0258.600 Unitrode glass Pt 1000 electrode (Metrohm AG, Herisau, Switzerland). The pH-potentiometric system was calibrated using pH 1.68, 4.01, 6.87, 9.18 aqueous buffer solutions. In highly basic solutions, pH was measured by NMR-pH indicator molecules as well to avoid the uncertainty of the glass electrode pH-meter readings in such solutions [24]. The concentration of these pH indicators was 1.0 mM. For the analysis of NMR titration curves of proton chemical shifts versus pH, the software Origin Pro 8 (OriginLab Corp., Northampton,MA, USA) was used.
# In baicalin, there are 12 protons connected to carbon atoms, but in ^1H NMR spectra, only the singlets of H8 and H3 on ring A and the doublet of the aromatic H2’,6′ protons can be easily assigned, while the other aromatic protons occur in complex spectrum of multiplets. The protons of the monosaccharide unit overlap with each other and with the signals of the antioxidant ascorbic acid. The suppression of the large water signal also interferes with the observation of certain NMR signals. Thus, during the NMR-pH titration, we followed the above-mentioned three chemical shift signal sets.
# Since protonation processes are instantaneous on the NMR chemical shift time scale, the observed chemical shift (δ^obsd) of a certain nucleus can be expressed as a weighted average of chemical shifts of the non-, mono-, di- and triprotonated forms of baicalin (B):2 δ^obsd=δB^3‐xB^3‐+δHB^2‐xHB^2‐+δH2B^−xH2B^−+δH3BxH3B where weighting factors are mole fractions that can be expressed in terms of stepwise protonation macroconstants and the actual hydrogen ion concentration. For example, xH2B^− is:3 xH2B^−=K1K2H^+^2/1+K1H^++K1K2H^+^2+K1K2K3H^+^3
# Combining and rearranging Eqs. (2) and (3) yield Eq. (4) that can be directly fitted to the ^1H-NMR titration curve of each nucleus observed.4 δ^obsd=δB^3‐+δHB^2‐K1H^++δH2B^−K1K2H^+^2+δH3BK1K2K3H^+^3/1+K1H^++K1K2H^+^2+K1K2K3H^+^3
# The logarithms of the obtained protonation constants correspond to the negative logarithms of dissociation constants, namely pKa1 = logK3, pKa2 = logK2 and pKa3 = logK1 [28].
# [2] = Distribution coefficient measurements by the stir-flask method (octanol/water); format: physicochemical
# Experimental: The distribution coefficients were calculated from the absorbance of the molecules before and after partitioning at several octanol/water phase ratios. For the pH control, a pH 7.40 phosphate buffer and a standardized HCl solution were used, with an ionic strength of 0.15 M in both cases. The pH of the phosphate buffer was measured using a Metrohm 6.0204.100 combined pH glass electrode and a Metrohm 780 pH meter. The concentration change of baicalin was followed by UV-absorbance measurements. […] Then, the two phases were intensively stirred for 2 h in thermostated double-walled glass cells at constant temperature (25 ± 0.1°C). After separation of the equilibrated phases and centrifugation, the concentration of baicalin was determined by UV spectrophotometry (Perkin-Elmer Lambda 15) at several values at 279 nm (λmax). The distribution coefficients were calculated from the absorbance of baicalin before and after partitioning. […]
# For baicalin, the pH-dependent distribution coefficient is the sum of four products:5 DpH=ΣxiPi=xB^3‐PB^3‐+xHB^2‐PHB^2‐+xH2B^−PH2B^−+xH3BPH3B where xi mole fractions are the pH-dependent quantities, while Pi parameters are the pH-independent ones. […]
# The mole fraction data can be calculated similarly as shown in Eq. (3); thus, the partition coefficient of the anionic form can be obtained. […]
# [3] = Thermodynamic solubility by saturation shake-flask method; format: physicochemical; settings: 37°C
# Experimental: A total of 0.94 g of 1 M HCl and 0.35 g of NaCl were diluted and dissolved to 1000 ml with distilled water and used as simulated gastric fluid (SGF) with pH 1.2. This medium served as solvent for the measurement of intrinsic solubility of baicalin.
# A total of 250 ml of 0.2 M […] and 77 ml of 0.2 M NaOH were homogenized and diluted to 1000 ml with distilled water. This medium served as simulated intestinal fluid (SIF) with pH 6.8.
# Blank buffer of FaSSGF pH 1.6 (1.99 g NaCl dissolved in 900 ml distilled water, adjusted the pH to 1.6 with 1 M HCl and filled to 1000 ml with distilled water) and phosphate buffer pH 6.5 (0.42 g NaOH pellets + 3.95 g NaH2PO4 monohydrate + 6.19 g NaCl dissolved in 900 ml distilled water, adjusted the pH to 6.5 with either 1 M NaOH or 1 M HCl and filled to 1000 ml with distilled water) were prepared as stock solutions.
# FaSSGF was produced from blank buffer of FaSSGF pH 1.6, which was completed by 0.08 mM sodium taurocholate, 0.02 mM lecithin, 0.1 mg/ml pepsin and has osmolality of 120 ± 2.5 mOsmol/kg. To obtain the FaSSIF medium, 100 ml of blank phosphate buffer (pH 6.5) was made up by 3 mM sodium taurocholate and 0.75 mM lecithin. FaSSIF has an osmolality of 270 ± 10 mOsmol/kg.
# The thermodynamic solubility of baicalin in various media was determined by saturation shake-flask method based on the method of Baka et al.. Briefly, 10 mg of baicalin was added to 5 ml of each solvent in sealed vials. All samples were stirred (approx. 500 rpm) and thermostated (IKA RT-5 power heatable magnetic stirrer, IKA Work Inc., USA) at 37 ± 0.5°C for 24 h allowing it to achieve thermodynamic equilibrium. After this period, 24 h of sedimentation cycle was adopted without stirring at 37 ± 0.5°C. To improve the efficacy of phase-separation, the saturated supernatant of samples was centrifuged at 14,000 rpm for 15 min (Herolab MicroGen 16, Herolab GmbH, Wiesloch, Germany). The aliquots (250 μl) taken for solubility experiments were suitably diluted with blank buffers and the absorbance was measured at λ = 316 nm by UV spectroscopy (Agilent 8453 UV-Visible Spectrophotometer, Agilent Technologies Ltd., USA). […] Ideally, λmax selected for the analysis of drug should not show any interference due to solvents and excipients present in the dissolution medium. […] In the solubility study, thus, λmax 316 nm was selected for the quantification of baicalin. […] All experiments were repeated three times and results were calculated from the linear calibration curve of baicalin in each media. Data are expressed as mean ± SD (μg/ml).
# [4] = Stability in alkaline solution observed by NMR; format: physicochemical
# Text: Baicalin has three acidic functional moieties, one carboxyl and two phenolic hydroxyl groups. Proton transfer processes can be regarded either from the aspect of dissociation or association. Because of the acidic nature of baicalin, these processes will be characterized here in terms of acid dissociation constants (Ka). Carboxylic acids are typically orders of magnitude stronger than phenols. The determination of baicalin dissociation constants is hampered by its poor water solubility and sensitivity of oxidation of the catechol structure on its A ring. The acid/base properties of baicalin have been investigated earlier, resulting in pKa1, pKa2 and pKa3 values of 5.05, 7.6 and 10.1, respectively. […] We decided to undertake the characterization of baicalin by NMR-pH titrations, where the molecule was protected from oxidation by the antioxidant ascorbic acid up to pH ≈ 13.
# NMR-pH titrations were performed on a Varian VNMRS spectrometer (600 MHz for ^1H). Spectra were recorded at 25°C. […] Spectra were processed with VNMRj 3.2a software. pH values were read on a Metrohm 2.780.0010 precision pH meter with a 6.0258.600 Unitrode glass Pt 1000 electrode (Metrohm AG, Herisau, Switzerland). […] In highly basic solutions, pH was measured by NMR-pH indicator molecules as well to avoid the uncertainty of the glass electrode pH-meter readings in such solutions [24]. […]
# [5] = design: method as in PMID 19722585; settings: cited from earlier work
# [6] = design: method as in PMID 19722585; settings: reported as "1.27 (pH 7)"; cited from earlier work
# [7] = design: method as in PMID 26579386; settings: cited from earlier work
# [8] = design: method as in PMID 16107266; settings: cited from earlier work
# [9] = NMR-pH titration, 25°C, ionic strength 0.15 M, ascorbic acid as antioxidant
# [10] = UV-pH titration, called highly dubious by the authors
compound,measurement,setting,value
COC(=O)[C@H]1O[C@@H](Oc2cc3oc(-c4ccccc4)cc(=O)c3c(O)c2O)[C@H](O)[C@@H](O)[C@@H]1O [Baicalin methyl ester],pKa1 (acid dissociation constant),[1]; [9],8.78
same,pKa2 (acid dissociation constant),[1]; [9],> 14
"O=C(O)[C@H]1O[C@@H](Oc2cc3oc(-c4ccccc4)cc(=O)c3c(O)c2O)[C@H](O)[C@@H](O)[C@@H]1O [Baicalin, 7-D-glucuronic acid-5,6-dihydroxyflavone]",pKa,"[1]; NMR-pH titration, 25°C, ionic strength 0.15 M, ascorbic acid as antioxidant, read-out: pKa1 (acid dissociation constant)",4.21
same,pKa,"[1]; NMR-pH titration, 25°C, ionic strength 0.15 M, ascorbic acid as antioxidant, read-out: pKa2 (acid dissociation constant)",8.56
same,pKa,"[1]; NMR-pH titration, 25°C, ionic strength 0.15 M, ascorbic acid as antioxidant, read-out: pKa3 (acid dissociation constant)",> 14
same,mole fraction of the monoanionic form ([H2B]−),[1]; pH 6.8 SIF,98.0%
same,relative concentration of the dianionic form (HB2−),"[1]; pH 7.40, calculated from pKa values",6.5%
same,mole fraction of the monoanionic form ([H2B]−),[1]; pH of blood (pH 7.40),93.5%
same,difference between the lipophilicity of the neutral and the anionic form,[2],2.56 log unit
same,logD at 2 h,"[2]; standardized 0.15 M HCl solution, 25°C, SD in brackets, read-out: log D (characterizes the log P of the neutral form)",1.28
same,solubility thermodynamic at 24 h,"[3]; distilled water (Aqua dest.), read-out: Thermodynamic solubility",67 µg/mL
same,solubility thermodynamic at 24 h,"[3]; fassgf or other biorelevant, thermodynamic from solid, pH 1.6 FaSSGF, read-out: Thermodynamic solubility",33.2 µg/mL
same,solubility thermodynamic at 24 h,"[3]; simulated gastric fluid (SGF), simulated gastric fluid, thermodynamic from solid, pH 1.2 SGF, read-out: Thermodynamic solubility (intrinsic solubility)",11.6 µg/mL
same,solubility thermodynamic at 24 h,"[3]; simulated intestinal fluid (SIF), fassgf or other biorelevant, thermodynamic from solid, pH 6.8 SIF, read-out: Thermodynamic solubility",10500 µg/mL
same,solubility thermodynamic at 24 h,"[3]; thermodynamic from solid, pH 6.5 FaSSIF, read-out: Thermodynamic solubility",8110 µg/mL
same,stability in alkaline solution (decomposition),"[4]; NMR investigations, without antioxidant",rapidly decomposes above pH 9
same,stability in alkaline solution (oxidation),[4]; in the presence of a large excess of ascorbic acid,rapid oxidation of baicalin above pH 13
same,pKa2,[5]; [10],7.6
same,pKa3,[5]; [10],10.1
same,pKa1,[5]; earlier investigation,5.05
same,log P,[6],1.27
same,water solubility,[7],54 µg/mL
same,absolute bioavailability,[8],2.2 ± 0.2%
